In patent publication US20200207782A1, “CHEMICALLY ACTIVATED WATER-SOLUBLE PRODRUG” (SUMITOMO DAINIPPON PHARMA CO., LTD, priority 2017, published 2020):
Where “and” joins values, the source holds several entries; their conditions need not be identical. Identical values can stand only once. Counter-ions that a name gives are not always drawn.

Legend:
[1] = physchem; conditions: thermodynamic from solid
Protocol: The solubility of the water-soluble prodrugs described in the Examples and the Reference Examples was measured. […] The filtrate was measured by HPLC.

[2] = Solution stability test (residual ratio and generation of active form in buffers of pH 2.0 to 9.0); type: physicochemical; set-up: Rate of generation of active form after 24 hours in buffer with pH of 7.4: tested at 25 µM; conditions: for Residual ratio / Rate of generation of active form after 24 hours in buffer with pH of 7.4: 25° C.; for Residual ratio: 25 umol/L; for Degradation behaviour in buffers (in words): pH 2.0 to 9.0; for Rate of generation of active form after 24 hours in buffer with pH of 7.4: pH 7.4 buffer
Protocol: The test compounds were incubated at 25° C. at a concentration of 25 umol/L in a buffer prepared to have a pH of 2.0, 3.0, 5.0, 7.4, and 9.0. The compounds were measured by HPLC after 0, 3, 6, 9, 12, and 24 hours.
The buffers used at each pH are the following. • pH 2.0: 50 mmol/L glycine buffer • pH 3.0: 50 mmol/L citrate buffer • pH 5.0: 50 mmol/L citrate buffer • pH 7.4: 50 mmol/L phosphate buffer • pH 9.0: 50 mmol/L glycine buffer
The measurement conditions for HPLC are the following.
The yield of the Example and Reference Example compounds and active forms is calculated with each of the peak area of the Example and Reference Example compounds at 0 minutes and the peak area upon dissolution of the corresponding active form at 100 umol/L as 100%. The yield is denoted in terms of %

Row | SMILES | Residual ratio ([2]; pH2.0 buffer, 0 hr) [%] | Residual ratio ([2]; pH2.0 buffer, 3 hr) [%] | Residual ratio ([2]; pH2.0 buffer, 6 hr) [%] | Residual ratio ([2]; pH2.0 buffer, 9 hr) [%] | Residual ratio ([2]; pH2.0 buffer, 12 hr) [%] | Degradation behaviour in buffers (in words) [2] | Residual ratio ([2]; pH3.0 buffer, 0 hr) [%] | Residual ratio ([2]; pH3.0 buffer, 3 hr) [%] | Residual ratio ([2]; pH3.0 buffer, 6 hr) [%] | Residual ratio ([2]; pH3.0 buffer, 9 hr) [%] | Residual ratio ([2]; pH3.0 buffer, 12 hr) [%] | Residual ratio ([2]; pH3.0 buffer, 24 hr) [%] | Residual ratio ([2]; pH5.0 buffer, 0 hr) [%] | Residual ratio ([2]; pH5.0 buffer, 3 hr) [%] | Residual ratio ([2]; pH5.0 buffer, 6 hr) [%] | Residual ratio ([2]; pH5.0 buffer, 9 hr) [%] | Residual ratio ([2]; pH5.0 buffer, 12 hr) [%] | Residual ratio ([2]; pH7.4 buffer, 0 hr) [%] | Residual ratio ([2]; pH7.4 buffer, 3 hr) [%] | Residual ratio ([2]; pH7.4 buffer, 6 hr) [%] | other results
1 | CC(=O)c1cc2c(O)c3c(O)cccc3c(OC(=O)NCCCN)c2o1 [Reference Example 9, 2-Acetyl-4,5-dihydroxynaphtho[2,3-b]furan-9-yl(3-aminopropyl)carbamate hydrochloride] | 100 | 96.9 | 92.9 | 85.7 | 85.2 | pH dependent and chemical degradation progressed | 101 | 100 | 100 | 99.8 | 99.5 | 98.4 | 102 | 104 | 99.7 | 93.8 | 87.4 | 103 | 83.0 | 67.1 | solubility ([1]; pH 3, aqueous buffer): > 10000 µg/mL; Residual ratio ([2]; pH5.0 buffer, 24 hr, hydrochloride): 67% and 67.1%; Residual ratio ([2]; pH7.4 buffer, 9 hr): 52.7%; Residual ratio ([2]; pH7.4 buffer, 12 hr): 41.1%; Residual ratio ([2]; pH7.4 buffer, 24 hr, hydrochloride): 26% and 25.5%; Rate of generation of active form after 24 hours in buffer with pH of 7.4 [2]: 71%; Residual ratio ([2]; pH9.0 buffer, 0 hr): 75.3%; Residual ratio ([2]; pH9.0 buffer, 3 hr): 13.7%; Residual ratio ([2]; pH9.0 buffer, 6 hr, hydrochloride): 0%; Residual ratio ([2]; pH9.0 buffer, 9 hr): 0.0%; Residual ratio ([2]; pH9.0 buffer, 12 hr): 0.0%; Residual ratio ([2]; pH9.0 buffer, 24 hr): 0.0%; Stability in solution (in words) ([2]; pH of 2.0, 25° C.): sufficient stability; Stability in solution (in words) ([2]; pH of 3.0, 25° C.): sufficient stability
2 | Cc1cc(OC(=O)NCCNCC(=O)O)c2ccccc2c1OC(=O)NCCNCC(=O)O [Example 2, 2,2′-[(2-Methylnaphthalene-1,4-diyl)bis(oxycarbonyliminoethane-2,1-diylimino)]diacetic acid dihydrochloride] | 100 | 100 | 99.8 | 99.7 | 102 | pH dependent and chemical degradation progressed | 101 | 101 | 101 | 100 | 100 | 101 | 101 | 101 | 102 | 102 | 100 | 102 | 50.7 | 32.0 | solubility at 24 h ([1]; pH 2, aqueous buffer): > 10000 µg/mL; Residual ratio ([2]; pH2.0 buffer, 24 hr): 100%; Residual ratio ([2]; pH5.0 buffer, 24 hr): 102%; Residual ratio ([2]; pH7.4 buffer, 9 hr): 16.2%; Residual ratio ([2]; pH7.4 buffer, 12 hr, dihydrochloride): 0%; Residual ratio ([2]; pH7.4 buffer, 24 hr): 0.0%; Rate of generation of active form after 24 hours in buffer with pH of 7.4 [2]: 7%; Residual ratio ([2]; pH9.0 buffer, 0 hr): 44.5%; Residual ratio ([2]; pH9.0 buffer, 3 hr, dihydrochloride): 0%; Residual ratio ([2]; pH9.0 buffer, 6 hr): 0.0%; Residual ratio ([2]; pH9.0 buffer, 9 hr): 0.0%; Residual ratio ([2]; pH9.0 buffer, 12 hr): 0.0%; Residual ratio ([2]; pH9.0 buffer, 24 hr): 0.0%; Stability in solution (in words) ([2]; pH of 2.0, 25° C.): very stable; Stability in solution (in words) ([2]; pH of 3.0, 25° C.): very stable; Stability in solution (in words) ([2]; pH of 5.0, 25° C.): very stable
